Earlier results, collected in PubChem BioAssay AID1259409 (Chemical Carcinogenesis Research Information System (CCRIS), 2018).

System: rodent chemically induced tumor inhibition, incidence and multiplicity
Assay: CCRIS tumor inhibitor studies
Conditions: for tumour outcome (control, treated, inhibition, significance): Dose [Inhibitor]: 0

C=CCSCC=C
tumour outcome (control, treated, inhibition, significance) (Carcinogen: DIETHYLNITROSAMINE, 55-18-5, N-METHYL-N-NITROSOUREA, 684-93-5, N,N-DIBUTYLNITROSAMINE, 924-16-3, Carcinogen: DIETHYLNITROSAMINE, 55-18-5, N-METHYL-N-NITROSOUREA, 684-93-5, N,N-DIBUTYLNITROSAMINE, 924-16-3, 0.5% IN DIET BEGINNING POST CARCINOGEN TREATMENT AND CONTINUING TO WK 40 (STUDY DURATION: 40 WK), Route [Inhibitor]: ORAL, Species: RAT, Strain/Sex: F344/MALE, Target Tissue: Type of Lesion: LUNG: CARCINOMA, Dose [Carcinogen]: 100 MG/KG DIETHYLNITROSAMINE ONCE FOLLOWED BY 20 MG/KG N-METHYL-N-NITROSOUREA ON D 2, 5, 8 AND 11 THEN 0.05% N-N-DIBUTYL, Promoter: NONE USED): 3/16 (19%), 0/18 (0%), 100%, not calculated
tumour outcome (control, treated, inhibition, significance) (Carcinogen: DIETHYLNITROSAMINE, 55-18-5, N-METHYL-N-NITROSOUREA, 684-93-5, N,N-DIBUTYLNITROSAMINE, 924-16-3, Carcinogen: DIETHYLNITROSAMINE, 55-18-5, N-METHYL-N-NITROSOUREA, 684-93-5, N,N-DIBUTYLNITROSAMINE, 924-16-3, 0.5% IN DIET BEGINNING POST CARCINOGEN TREATMENT AND CONTINUING TO WK 40 (STUDY DURATION: 40 WK), Route [Inhibitor]: ORAL, Species: RAT, Strain/Sex: F344/MALE, Target Tissue: Type of Lesion: THYROID: ADENOMA, Dose [Carcinogen]: 100 MG/KG DIETHYLNITROSAMINE ONCE FOLLOWED BY 20 MG/KG N-METHYL-N-NITROSOUREA ON D 2, 5, 8 AND 11 THEN 0.05% N-N-DIBUTYL, Promoter: NONE USED): 8/16 (50%), 2/18 (11%), 78%, p<0.02
tumour outcome (control, treated, inhibition, significance) (Carcinogen: DIETHYLNITROSAMINE, 55-18-5, N-METHYL-N-NITROSOUREA, 684-93-5, N,N-DIBUTYLNITROSAMINE, 924-16-3, Carcinogen: DIETHYLNITROSAMINE, 55-18-5, N-METHYL-N-NITROSOUREA, 684-93-5, N,N-DIBUTYLNITROSAMINE, 924-16-3, 0.5% IN DIET BEGINNING POST CARCINOGEN TREATMENT AND CONTINUING TO WK 40 (STUDY DURATION: 40 WK), Route [Inhibitor]: ORAL, Species: RAT, Strain/Sex: F344/MALE, Target Tissue: Type of Lesion: THYROID: CARCINOMA, Dose [Carcinogen]: 100 MG/KG DIETHYLNITROSAMINE ONCE FOLLOWED BY 20 MG/KG N-METHYL-N-NITROSOUREA ON D 2, 5, 8 AND 11 THEN 0.05% N-N-DIBUTYL, Promoter: NONE USED): 2/16 (13%), 0/18 (0%), 100%, not calculated
tumour outcome (control, treated, inhibition, significance) (Carcinogen: DIETHYLNITROSAMINE, 55-18-5, N-METHYL-N-NITROSOUREA, 684-93-5, N,N-DIBUTYLNITROSAMINE, 924-16-3, Carcinogen: DIETHYLNITROSAMINE, 55-18-5, N-METHYL-N-NITROSOUREA, 684-93-5, N,N-DIBUTYLNITROSAMINE, 924-16-3, 0.5% IN DIET BEGINNING POST CARCINOGEN TREATMENT AND CONTINUING TO WK 40 (STUDY DURATION: 40 WK), Route [Inhibitor]: ORAL, Species: RAT, Strain/Sex: F344/MALE, Target Tissue: Type of Lesion: URINARY BLADDER: CARCINOMA, Dose [Carcinogen]: 100 MG/KG DIETHYLNITROSAMINE ONCE FOLLOWED BY 20 MG/KG N-METHYL-N-NITROSOUREA ON D 2, 5, 8 AND 11 THEN 0.05% N-N-DIBUTYL, Promoter: NONE USED): 1/16 (6%), 0/18 (0%), 100%, not calculated
tumour outcome (control, treated, inhibition, significance) (Carcinogen: DIETHYLNITROSAMINE, 55-18-5, N-METHYL-N-NITROSOUREA, 684-93-5 N,N-DIBUTYLNITROSAMINE, 924-16-3, Carcinogen: DIETHYLNITROSAMINE, 55-18-5, N-METHYL-N-NITROSOUREA, 684-93-5 N,N-DIBUTYLNITROSAMINE, 924-16-3, 0.5% IN DIET BEGINNING POST CARCINOGEN TREATMENT AND CONTINUING TO WK 40 (STUDY DURATION: 40 WK), Route [Inhibitor]: ORAL, Species: RAT, Strain/Sex: F344/MALE, Target Tissue: Type of Lesion: URINARY BLADDER: PAPILLOMA, Dose [Carcinogen]: 100 MG/KG DIETHYLNITROSAMINE ONCE FOLLOWED BY 20 MG/KG N-METHYL-N-NITROSOUREA ON D 2, 5, 8 AND 11 THEN 0.05% N-N-DIBUTYL, Promoter: NONE USED): 4/16 (25%), 2/18 (11%), 56%, not calculated
tumour outcome (control, treated, inhibition, significance) (Carcinogen: DIETHYLNITROSAMINE, 55-18-5, N-METHYL-NITROSOUREA, 684-93-5, N,N'-DIMETHYLHYDRAZINE, 540-73-8, N-BUTYL-N-(4-HYDROX, Carcinogen: DIETHYLNITROSAMINE, 55-18-5, N-METHYL-NITROSOUREA, 684-93-5, N,N'-DIMETHYLHYDRAZINE, 540-73-8, N-BUTYL-N-(4-HYDROX, 200 MG/KG BW IN CORN OIL 3/WK FOR 6 WK BEGINNING POST CARCINOGEN TREATMENT (STUDY DURATION: 28 WK), Route [Inhibitor]: GAVAGE, Species: RAT, Strain/Sex: F344/MALE, Target Tissue: Type of Lesion: KIDNEY: NEPHROBLASTOMA, Dose [Carcinogen]: 100 MG/KG BW DEN ONCE, 20 MG/KG BW MNU ONCE ON D 2, 5, 8 AND 11, 40 MG/KG BW DMH ON D 14, 17, 20 AND 23, 0.05% BHBN I, Dose [Carcinogen]: 100 MG/KG BW DEN ONCE, 20 MG/KG BW MNU ONCE ON D 2, 5, 8 AND 11, 40 MG/KG BW DMH ON D 14, 17, 20 AND 23, 0.05% BHBN I, Promoter: NONE USED): 5/20 (25%), 8/19 (42%), -68%, not calculated
tumour outcome (control, treated, inhibition, significance) (Carcinogen: DIETHYLNITROSAMINE, 55-18-5, N-METHYL-NITROSOUREA, 684-93-5, N,N'-DIMETHYLHYDRAZINE, 540-73-8, N-BUTYL-N-(4-HYDROX, Carcinogen: DIETHYLNITROSAMINE, 55-18-5, N-METHYL-NITROSOUREA, 684-93-5, N,N'-DIMETHYLHYDRAZINE, 540-73-8, N-BUTYL-N-(4-HYDROX, 200 MG/KG BW IN CORN OIL 3/WK FOR 6 WK BEGINNING POST CARCINOGEN TREATMENT (STUDY DURATION: 28 WK), Route [Inhibitor]: GAVAGE, Species: RAT, Strain/Sex: F344/MALE, Target Tissue: Type of Lesion: KIDNEY: RENAL CELL CARCINOMA, Dose [Carcinogen]: 100 MG/KG BW DEN ONCE, 20 MG/KG BW MNU ONCE ON D 2, 5, 8 AND 11, 40 MG/KG BW DMH ON D 14, 17, 20 AND 23, 0.05% BHBN I, Dose [Carcinogen]: 100 MG/KG BW DEN ONCE, 20 MG/KG BW MNU ONCE ON D 2, 5, 8 AND 11, 40 MG/KG BW DMH ON D 14, 17, 20 AND 23, 0.05% BHBN I, Promoter: NONE USED): 1/20 (5%), 0/19 (0%), 100%, not calculated
tumour outcome (control, treated, inhibition, significance) (Carcinogen: N-NITROSOMETHYLBENZYLAMINE, 937-40-6, 10 MG/KG IN CORN OIL 1/WK FOR 5 WK BEGINNING 3 HR PRIOR TO CARCINOGEN TREATMENT (STUDY DURATION: 15 WK), Route [Inhibitor]: GAVAGE, Species: RAT, Strain/Sex: SPRAGUE-DAWLEY/MALE, Target Tissue: Type of Lesion: ESOPHAGUS: TUMOR, Dose [Carcinogen]: 3 MG/KG 1/WK FOR 5 WK, Promoter: NONE USED): 96%, 90%, 6%, not significant
tumour outcome (control, treated, inhibition, significance) (Carcinogen: N-NITROSOMETHYLBENZYLAMINE, 937-40-6, 100 MG/KG IN CORN OIL 1/WK FOR 5 WK BEGINNING 3 HR PRIOR TO CARCINOGEN TREATMENT (STUDY DURATION: 15 WK), Route [Inhibitor]: GAVAGE, Species: RAT, Strain/Sex: SPRAGUE-DAWLEY/MALE, Target Tissue: Type of Lesion: ESOPHAGUS: TUMOR, Dose [Carcinogen]: 3 MG/KG 1/WK FOR 5 WK, Promoter: NONE USED): 96%, 63%, 34%, p<0.05
tumour outcome (control, treated, inhibition, significance) (Carcinogen: N-NITROSOMETHYLBENZYLAMINE, 937-40-6, 200 MG/KG IN CORN OIL 1/WK FOR 5 WK BEGINNING POST CARCINOGEN TREATMENT (STUDY DURATION: 15 WK), Route [Inhibitor]: GAVAGE, Species: RAT, Strain/Sex: SPRAGUE-DAWLEY/MALE, Target Tissue: Type of Lesion: ESOPHAGUS: TUMOR, Dose [Carcinogen]: 3 MG/KG 1/WK FOR 5 WK, Promoter: NONE USED): 96%, 96%, 0%, not significant
outcome (Carcinogen: N-NITROSOMETHYLBENZYLAMINE, 937-40-6, Dose [Inhibitor]: 200 MG/KG BW IN CORN OIL 1/WK FOR 5 WK BEGINNING 3 HR PRIOR TO EACH CARCINOGEN DOSE (STUDY DURATION: 15 WK), Route [Inhibitor]: GAVAGE, Species: RAT, Strain/Sex: SPRAGUE-DAWLEY/MALE, Target Tissue: Type of Lesion: ESOPHAGUS: TUMOR, Dose [Carcinogen]: 3.5 MG/KG BW 1/WK FOR 5 WK, Promoter: NONE USED): 79%, 0, 100%, p<0.001
tumour outcome (control, treated, inhibition, significance) (Carcinogen: VINYL CARBAMATE, 15805-73-9, 8 UMOL IN 0.1 MOLAR STERILIZED POTASSIUM BUFFER ONCE 10 MIN PRIOR TO CARCINOGEN DOSE (STUDY DURATION: 22 WK), Route [Inhibitor]: GAVAGE, Species: MOUSE, Strain/Sex: ICR/FEMALE, Target Tissue: Type of Lesion: SKIN: PAPILLOMA, Dose [Carcinogen]: 5.8 UMOL IN 0.2 ML ACETONE ONCE, Promoter: 12-O-TETRADECANOYLPHORBOL 13-ACETATE, 16561-29-8): 70%, 57%, 19%, not significant
tumour outcome (control, treated, inhibition, significance) (Carcinogen: VINYL CARBAMATE, 15805-73-9, 200 MG/KG BW ONCE AT 2 HR AND 1 D PRIOR TO CARCINOGEN DOSE (STUDY DURATION: 22 WK), Route [Inhibitor]: GAVAGE, Species: MOUSE, Strain/Sex: CD-1/FEMALE, Target Tissue: Type of Lesion: SKIN: PAPILLOMA, Dose [Carcinogen]: 11.5 UMOL IN 0.2 ML ACETONE ONCE, Promoter: 12-O-TETRADECANOYLPHORBOL-13-ACETATE, 16561-29-8): 58%, 29%, 50%, not calculated
